Results taken from patent US12077503B2, “Substituted cyclic amides and their use as herbicides” (FMC CORPORATION, priority 2015, dated 2024).

How the values were obtained:
Format in all cases: in vivo
[1] = test system: Kochia (Kochia scoparia); experiment: Test A preemergence; details: for Plant response rating, Kochia: 125 g ai/ha, preemergence, 0 to 100 scale (0 no effect, 100 complete control); for Kochia plant response rating (0 to 100 scale, 0 is no effect, 100 is complete control): Preemergence, 500 g ai/ha, visual injury approx. 10 d
Summary of the method: (§1)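 Seeds sprayed preemergence with a directed soil spray, or plants at 2 to 10 cm height and one- to two-leaf stage sprayed postemergence, with test chemicals in a non-phytotoxic solvent mixture containing surfactant, in loam soil–sand blend. Injury rated visually against untreated controls after about 10 d in greenhouse, 0 (no effect) to 100 (complete control).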

[2] = test system: barnyardgrass (Echinochloa crus-galli); experiment: Test A preemergence; details: for Plant response rating, Barnyardgrass: 125 g ai/ha, preemergence, 0 to 100 scale (0 no effect, 100 complete control); for Barnyardgrass plant response rating (0 to 100 scale, 0 is no effect, 100 is complete control): Preemergence, 500 g ai/ha, visual injury approx. 10 d
Summary of the method: as §1

[3] = test system: giant foxtail (Setaria faberii); experiment: Test A preemergence; details: for Plant response rating, Foxtail, Giant: 125 g ai/ha, preemergence, 0 to 100 scale (0 no effect, 100 complete control); for Foxtail, Giant plant response rating (0 to 100 scale, 0 is no effect, 100 is complete control): Preemergence, 500 g ai/ha, visual injury approx. 10 d
Summary of the method: as §1

[4] = test system: pigweed (Amaranthus retroflexus); experiment: Test A preemergence; details: for Plant response rating, Pigweed: 125 g ai/ha, preemergence, 0 to 100 scale (0 no effect, 100 complete control); for Pigweed plant response rating (0 to 100 scale, 0 is no effect, 100 is complete control): Preemergence, 500 g ai/ha, visual injury approx. 10 d
[5] = test system: ragweed (common ragweed, Ambrosia elatior); experiment: Test A preemergence; details: for Plant response rating, Ragweed: 125 g ai/ha, preemergence, 0 to 100 scale (0 no effect, 100 complete control); for Ragweed plant response rating (0 to 100 scale, 0 is no effect, 100 is complete control): Preemergence, 500 g ai/ha, visual injury approx. 10 d
Summary of the method: as §1

[6] = test system: ryegrass, Italian (Italian ryegrass, Lolium multiflorum); experiment: Test A preemergence; details: for Plant response rating, Ryegrass, Italian: 125 g ai/ha, preemergence, 0 to 100 scale (0 no effect, 100 complete control); for Ryegrass, Italian plant response rating (0 to 100 scale, 0 is no effect, 100 is complete control): Preemergence, 500 g ai/ha, visual injury approx. 10 d
Summary of the method: as §1

[7] = test system: Galium (catchweed bedstraw, Galium aparine); experiment: Test A postemergence; details: postemergence; for Galium plant response rating: 125 g ai/ha, visual injury rating on 0 to 100 scale (0 no effect, 100 complete control), approx. 10 d; for Plant response rating, Galium: 500 g ai/ha, 0 to 100 scale, 0 no effect, 100 complete control
Summary of the method: as §1

[8] = test system: Kochia (Kochia scoparia); experiment: Test A postemergence; details: postemergence; for Kochia plant response rating: 125 g ai/ha, visual injury rating on 0 to 100 scale (0 no effect, 100 complete control), approx. 10 d; for Plant response rating, Kochia: 500 g ai/ha, 0 to 100 scale, 0 no effect, 100 complete control
Summary of the method: as §1

[9] = test system: barnyardgrass (Echinochloa crus-galli); experiment: Test A postemergence; details: postemergence; for Barnyardgrass plant response rating: 125 g ai/ha, visual injury rating on 0 to 100 scale (0 no effect, 100 complete control), approx. 10 d; for Plant response rating, Barnyardgrass: 500 g ai/ha, 0 to 100 scale, 0 no effect, 100 complete control
Summary of the method: as §1

[10] = test system: blackgrass (Alopecurus myosuroides); experiment: Test A postemergence; details: postemergence; for Blackgrass plant response rating: 125 g ai/ha, visual injury rating on 0 to 100 scale (0 no effect, 100 complete control), approx. 10 d; for Plant response rating, Blackgrass: 500 g ai/ha, 0 to 100 scale, 0 no effect, 100 complete control
Summary of the method: as §1

[11] = test system: corn (Zea mays); experiment: Test A postemergence; details: postemergence; for Corn plant response rating: 125 g ai/ha, visual injury rating on 0 to 100 scale (0 no effect, 100 complete control), approx. 10 d; for Plant response rating, Corn: 500 g ai/ha, 0 to 100 scale, 0 no effect, 100 complete control
Summary of the method: as §1

[12] = test system: giant foxtail (Setaria faberii); experiment: Test A postemergence; details: postemergence; for Foxtail, Giant plant response rating: 125 g ai/ha, visual injury rating on 0 to 100 scale (0 no effect, 100 complete control), approx. 10 d; for Plant response rating, Foxtail, Giant: 500 g ai/ha, 0 to 100 scale, 0 no effect, 100 complete control
Summary of the method: as §1

[13] = test system: pigweed (Amaranthus retroflexus); experiment: Test A postemergence; details: postemergence; for Pigweed plant response rating: 125 g ai/ha, visual injury rating on 0 to 100 scale (0 no effect, 100 complete control), approx. 10 d; for Plant response rating, Pigweed: 500 g ai/ha, 0 to 100 scale, 0 no effect, 100 complete control
Summary of the method: as §1

[14] = test system: ragweed (common ragweed, Ambrosia elatior); experiment: Test A postemergence; details: postemergence; for Ragweed plant response rating: 125 g ai/ha, visual injury rating on 0 to 100 scale (0 no effect, 100 complete control), approx. 10 d; for Plant response rating, Ragweed: 500 g ai/ha, 0 to 100 scale, 0 no effect, 100 complete control
Summary of the method: as §1

[15] = test system: ryegrass, Italian (Italian ryegrass, Lolium multiflorum); experiment: Test A postemergence; details: postemergence; for Ryegrass, Italian plant response rating: 125 g ai/ha, visual injury rating on 0 to 100 scale (0 no effect, 100 complete control), approx. 10 d; for Plant response rating, Ryegrass, Italian: 500 g ai/ha, 0 to 100 scale, 0 no effect, 100 complete control
Summary of the method: as §1

[16] = test system: wheat (Triticum aestivum); experiment: Test A postemergence; details: postemergence; for Wheat plant response rating: 125 g ai/ha, visual injury rating on 0 to 100 scale (0 no effect, 100 complete control), approx. 10 d; for Plant response rating, Wheat: 500 g ai/ha, 0 to 100 scale, 0 no effect, 100 complete control
Summary of the method: as §1

[17] = test system: barnyardgrass (Echinochloa crus-galli); experiment: Test B flooded paddy test; details: Flood, 0 to 100 scale where 0 is no effect and 100 is complete control, 13 to 15 d
Summary of the method: (§2)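 2-leaf plants; pots flooded 3 cm over soil; cpd added to paddy water; depth held; greenhouse 13–15 d; visual rating vs controls, 0 = no effect, 100 = complete control.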

[18] = test system: ducksalad (Heteranthera limosa); experiment: Test B flooded paddy test; details: Flood, 0 to 100 scale where 0 is no effect and 100 is complete control, 13 to 15 d
Summary of the method: as §2

[19] = test system: rice (Oryra sativa); experiment: Test B flooded paddy test; details: Flood, 0 to 100 scale where 0 is no effect and 100 is complete control, 13 to 15 d
Summary of the method: as §2

[20] = test system: sedge, umbrella (small-flower umbrella sedge, Cyperus difformis); experiment: Test B flooded paddy test; details: Flood, 0 to 100 scale where 0 is no effect and 100 is complete control, 13 to 15 d
Summary of the method: as §2

Row | Structure (SMILES) | Plant response rating, Kochia [1] | Kochia plant response rating (0 to 100 scale, 0 is no effect, 100 is complete control) [1] | Plant response rating, Barnyardgrass [2] | Barnyardgrass plant response rating (0 to 100 scale, 0 is no effect, 100 is complete control) [2] | Plant response rating, Foxtail, Giant [3] | Foxtail, Giant plant response rating (0 to 100 scale, 0 is no effect, 100 is complete control) [3] | Plant response rating, Pigweed [4] | Pigweed plant response rating (0 to 100 scale, 0 is no effect, 100 is complete control) [4] | Plant response rating, Ragweed [5] | Ragweed plant response rating (0 to 100 scale, 0 is no effect, 100 is complete control) [5] | Plant response rating, Ryegrass, Italian [6] | Ryegrass, Italian plant response rating (0 to 100 scale, 0 is no effect, 100 is complete control) [6] | Galium plant response rating [7] | Plant response rating, Galium [7] | Kochia plant response rating [8] | Plant response rating, Kochia [8] | Barnyardgrass plant response rating [9] | Plant response rating, Barnyardgrass [9] | Blackgrass plant response rating [10] | Plant response rating, Blackgrass [10] | other results
1 | Cc1cc(C2CN(C)C(=O)C2C(=O)Nc2ccccc2C(F)(F)F)ccc1F (stereo not drawn) [Compound 406] | 0 | 40 | 90 | 90 | 90 | 90 | 20 | 50 | 0 | 40 | 20 | 50 | 50 | 50 | 40 | 50 | 90 | 90 | 30 | 50 | Corn plant response rating [11]: 20; Plant response rating, Corn [11]: 70; Foxtail, Giant plant response rating [12]: 80; Plant response rating, Foxtail, Giant [12]: 80; Pigweed plant response rating [13]: 20; Plant response rating, Pigweed [13]: 30; Ragweed plant response rating [14]: 20; Plant response rating, Ragweed [14]: 20; Ryegrass, Italian plant response rating [15]: 30; Plant response rating, Ryegrass, Italian [15]: 40; Wheat plant response rating [16]: 40; Plant response rating, Wheat [16]: 70; Plant response rating, Barnyardgrass ([17]; 250 g ai/ha): 70; Plant response rating, Ducksalad ([18]; 250 g ai/ha): 80; Plant response rating, Rice ([19]; 250 g ai/ha): 0; Plant response rating, Sedge, Umbrella ([20]; 250 g ai/ha): 0
2 | Cc1ccc(F)c(NC(=O)C2C(=O)NCC2c2ccc(F)c(F)c2)c1 (stereo not drawn) [Compound 408] | 0 | 0 | 0 | 0 | 0 | 0 | 0 | 0 | 0 | 0 | 0 | 0 | 0 | 0 | 0 | 0 | 0 | 0 | 0 | 0 | Corn plant response rating [11]: 0; Plant response rating, Corn [11]: 0; Foxtail, Giant plant response rating [12]: 0; Plant response rating, Foxtail, Giant [12]: 0; Pigweed plant response rating [13]: 0; Plant response rating, Pigweed [13]: 0; Ragweed plant response rating [14]: 0; Plant response rating, Ragweed [14]: 0; Ryegrass, Italian plant response rating [15]: 0; Plant response rating, Ryegrass, Italian [15]: 0; Wheat plant response rating [16]: 0; Plant response rating, Wheat [16]: 0; Plant response rating, Barnyardgrass ([17]; 500 g ai/ha): 0; Plant response rating, Ducksalad ([18]; 500 g ai/ha): 0; Plant response rating, Rice ([19]; 500 g ai/ha): 0; Plant response rating, Sedge, Umbrella ([20]; 500 g ai/ha): 0
3 | Cc1cccc(NC(=O)C2C(=O)NCC2c2ccc(F)c(F)c2)c1F (stereo not drawn) [Compound 409] | 0 | 0 | 70 | 80 | 80 | 90 | 0 | 10 | 0 | 0 | 0 | 0 | 0 | 0 | 0 | 30 | 60 | 70 | 10 | 20 | Corn plant response rating [11]: 0; Plant response rating, Corn [11]: 0; Foxtail, Giant plant response rating [12]: 60; Plant response rating, Foxtail, Giant [12]: 80; Pigweed plant response rating [13]: 0; Plant response rating, Pigweed [13]: 20; Ragweed plant response rating [14]: 0; Plant response rating, Ragweed [14]: 0; Ryegrass, Italian plant response rating [15]: 0; Plant response rating, Ryegrass, Italian [15]: 0; Wheat plant response rating [16]: 0; Plant response rating, Wheat [16]: 0; Plant response rating, Barnyardgrass ([17]; 500 g ai/ha): 40; Plant response rating, Ducksalad ([18]; 500 g ai/ha): 40; Plant response rating, Rice ([19]; 500 g ai/ha): 30; Plant response rating, Sedge, Umbrella ([20]; 500 g ai/ha): 0
